Measurements from the NIST ThermoML archive (doi:10.1016/j.tca.2014.02.019).
Numbers after ± are expanded uncertainties.

Experiment: xn = mol fraction of the nth substance listed
Conditions: 101 kPa, Liquid; for viscosity: Falling or rolling sphere viscometry; for mass density: Vibrating tube method

CCOS(=O)(=O)[O-].CC[N+]1(C)CCOCC1 [4-ethyl-4-methylmorpholinium ethyl sulfate] + O
Conditions | mass density [kg/m3] | viscosity [mPa·s]
298.15 K, x1 = 0.1255 | 1160.26 ± 0.33 | 7.655 ± 1.2
298.15 K, x1 = 0.2214 | 1196.87 ± 0.32 | 20.62 ± 3.3
298.15 K, x1 = 0.3165 | 1215.39 ± 0.43 | 46.5 ± 7.5
298.15 K, x1 = 0.4406 | 1229.15 ± 0.69 | 115.6 ± 19
298.15 K, x1 = 0.6319 | 1240.92 ± 1.3 | 529.2 ± 93
298.15 K, x1 = 0.7239 | 1244.69 ± 1.6 | 686.5 ± 120
298.15 K, x1 = 0.807 | 1247.34 ± 2 | 2262 ± 450
298.15 K, x1 = 1 | 1252.26 ± 3 | –
303.15 K, x1 = 0.1255 | 1157.12 ± 0.31 | 6.513 ± 1
303.15 K, x1 = 0.2214 | 1193.61 ± 0.32 | 16.92 ± 2.7
303.15 K, x1 = 0.3165 | 1212.17 ± 0.43 | 36.79 ± 5.9
303.15 K, x1 = 0.4406 | 1226.03 ± 0.69 | 93.81 ± 15
303.15 K, x1 = 0.6319 | 1237.71 ± 1.3 | 400.9 ± 69
303.15 K, x1 = 0.7239 | 1241.43 ± 1.6 | 533.1 ± 94
303.15 K, x1 = 0.807 | 1244.19 ± 2 | 1630 ± 310
303.15 K, x1 = 1 | 1249.05 ± 3 | –
308.15 K, x1 = 0.1255 | 1153.95 ± 0.3 | 5.589 ± 0.9
308.15 K, x1 = 0.2214 | 1190.35 ± 0.32 | 14.11 ± 2.3
308.15 K, x1 = 0.3165 | 1208.94 ± 0.43 | 29.62 ± 4.8
308.15 K, x1 = 0.4406 | 1222.87 ± 0.68 | 72.42 ± 12
308.15 K, x1 = 0.6319 | 1234.48 ± 1.3 | 309.1 ± 52
308.15 K, x1 = 0.7239 | 1238.23 ± 1.6 | 408.3 ± 71
308.15 K, x1 = 0.807 | 1241 ± 2 | 1088 ± 200
308.15 K, x1 = 1 | 1245.86 ± 3 | –
313.15 K, x1 = 0.1255 | 1150.75 ± 0.3 | 4.817 ± 0.77
313.15 K, x1 = 0.2214 | 1187.08 ± 0.31 | 11.93 ± 1.9
313.15 K, x1 = 0.3165 | 1205.7 ± 0.42 | 24.24 ± 3.9
313.15 K, x1 = 0.4406 | 1219.69 ± 0.68 | 57.41 ± 9.2
313.15 K, x1 = 0.6319 | 1231.24 ± 1.3 | 226.8 ± 38
313.15 K, x1 = 0.7239 | 1235.04 ± 1.6 | 308.8 ± 52
313.15 K, x1 = 0.807 | 1237.81 ± 2 | 746.9 ± 140
313.15 K, x1 = 1 | 1242.67 ± 3 | 2426 ± 480
318.15 K, x1 = 0.1255 | 1147.52 ± 0.3 | 4.176 ± 0.67
318.15 K, x1 = 0.2214 | 1183.79 ± 0.31 | 10.2 ± 1.6
318.15 K, x1 = 0.3165 | 1202.45 ± 0.42 | 20.16 ± 3.2
318.15 K, x1 = 0.4406 | 1216.5 ± 0.68 | 46.03 ± 7.4
318.15 K, x1 = 0.6319 | 1228.05 ± 1.2 | 170.3 ± 28
318.15 K, x1 = 0.7239 | 1231.83 ± 1.6 | 240 ± 40
318.15 K, x1 = 0.807 | 1234.63 ± 2 | 526.7 ± 93
318.15 K, x1 = 1 | 1239.51 ± 3 | 1677 ± 320
323.15 K, x1 = 0.1255 | 1144.26 ± 0.3 | 3.673 ± 0.59
323.15 K, x1 = 0.2214 | 1180.48 ± 0.31 | 8.814 ± 1.4
323.15 K, x1 = 0.3165 | 1199.19 ± 0.42 | 16.96 ± 2.7
323.15 K, x1 = 0.4406 | 1213.31 ± 0.67 | 37.3 ± 6
323.15 K, x1 = 0.6319 | 1224.95 ± 1.2 | 130.6 ± 21
323.15 K, x1 = 0.7239 | 1228.72 ± 1.6 | 180.6 ± 30
323.15 K, x1 = 0.807 | 1231.45 ± 2 | 379.7 ± 65
323.15 K, x1 = 1 | 1236.35 ± 3 | 1129 ± 210
328.15 K, x1 = 0.1255 | 1140.96 ± 0.3 | 2.845 ± 0.46
328.15 K, x1 = 0.2214 | 1177.17 ± 0.31 | 7.649 ± 1.2
328.15 K, x1 = 0.3165 | 1195.92 ± 0.42 | 14.47 ± 2.3
328.15 K, x1 = 0.4406 | 1210.11 ± 0.67 | 30.77 ± 4.9
328.15 K, x1 = 0.6319 | 1221.84 ± 1.2 | 101.7 ± 16
328.15 K, x1 = 0.7239 | 1225.53 ± 1.6 | 138.4 ± 23
328.15 K, x1 = 0.807 | 1228.26 ± 1.9 | 280.6 ± 47
328.15 K, x1 = 1 | 1233.2 ± 2.9 | 779.3 ± 140
333.15 K, x1 = 0.1255 | 1137.63 ± 0.3 | 2.896 ± 0.46
333.15 K, x1 = 0.2214 | 1173.83 ± 0.31 | 6.732 ± 1.1
333.15 K, x1 = 0.3165 | 1192.63 ± 0.42 | 12.44 ± 2
333.15 K, x1 = 0.4406 | 1206.91 ± 0.66 | 25.72 ± 4.1
333.15 K, x1 = 0.6319 | 1218.72 ± 1.2 | 80.93 ± 13
333.15 K, x1 = 0.7239 | 1222.36 ± 1.6 | 108.1 ± 18
333.15 K, x1 = 0.807 | 1225.07 ± 1.9 | 211.6 ± 35
333.15 K, x1 = 1 | 1230.06 ± 2.9 | 552.3 ± 98
338.15 K, x1 = 0.1255 | 1134.26 ± 0.3 | 2.626 ± 0.42
338.15 K, x1 = 0.2214 | 1170.4 ± 0.31 | 5.925 ± 0.95
338.15 K, x1 = 0.3165 | 1189.38 ± 0.41 | 10.79 ± 1.7
338.15 K, x1 = 0.4406 | 1203.71 ± 0.66 | 21.68 ± 3.5
338.15 K, x1 = 0.6319 | 1215.6 ± 1.2 | 65 ± 10
338.15 K, x1 = 0.7239 | 1219.28 ± 1.6 | 85.65 ± 14
338.15 K, x1 = 0.807 | 1221.94 ± 1.9 | 162.7 ± 27
338.15 K, x1 = 1 | 1226.93 ± 2.9 | 400.8 ± 69
343.15 K, x1 = 0.1255 | 1130.86 ± 0.32 | 2.124 ± 0.34
343.15 K, x1 = 0.2214 | 1167.12 ± 0.31 | 5.3 ± 0.85
343.15 K, x1 = 0.3165 | 1186.1 ± 0.41 | 9.457 ± 1.5
343.15 K, x1 = 0.4406 | 1200.5 ± 0.65 | 18.46 ± 3
343.15 K, x1 = 0.6319 | 1212.48 ± 1.2 | 53 ± 8.5
343.15 K, x1 = 0.7239 | 1216.18 ± 1.6 | 68.72 ± 11
343.15 K, x1 = 0.807 | 1218.8 ± 1.9 | 126.8 ± 21
343.15 K, x1 = 1 | 1223.81 ± 2.9 | 297.3 ± 50
